Measured values taken from PMC3180450, “Structural Insights into the Mechanism of Protein O-Fucosylation” (PLoS ONE, 2011).
Where a chain is given by its changes, count along the chain named. Where two headings read alike, the source gives them in different places.

How the values were obtained:
Format in all cases: binding
CePOFUT1 [1] = biological target: T1, CePOFUT1 (Caenorhabditis elegans, UniProt Q18014, D309N); test: thermal shift assay (ANS fluorescence); conditions: read-out: ΔT m (°C)1 mM GDP
T1 construct: gene pfut-1; codon-optimized synthetic gene in pPICZalphaA with KEX2 cleavage signal, secreted from Pichia pastoris X-33; monomer
T1 sequence (Q18014 26-382 D309N): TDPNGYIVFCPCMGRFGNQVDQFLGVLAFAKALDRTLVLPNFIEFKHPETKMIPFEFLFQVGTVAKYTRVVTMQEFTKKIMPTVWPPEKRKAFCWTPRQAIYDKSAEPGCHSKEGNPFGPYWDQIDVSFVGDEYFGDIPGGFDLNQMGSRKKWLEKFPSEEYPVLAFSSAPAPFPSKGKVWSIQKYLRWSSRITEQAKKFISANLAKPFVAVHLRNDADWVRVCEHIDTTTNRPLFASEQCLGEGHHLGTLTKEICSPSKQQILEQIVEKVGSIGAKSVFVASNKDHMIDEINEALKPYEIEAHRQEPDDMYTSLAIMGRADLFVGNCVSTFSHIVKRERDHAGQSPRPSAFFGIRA
Description: (§1) thermal shift assay (ANS fluorescence) on CePOFUT1

CePOFUT1 [2] = biological target: T2, CePOFUT1 (Caenorhabditis elegans, UniProt Q18014); test: thermal shift assay (ANS fluorescence)
T2 construct: gene pfut-1; codon-optimized synthetic gene in pPICZalphaA with KEX2 cleavage signal, secreted from Pichia pastoris X-33; monomer
T2 sequence (Q18014 26-382): T1 sequence (Q18014 26-382 D309N) with N284D
Description: as §1

CePOFUT1 [3] = biological target: T3, CePOFUT1 (Caenorhabditis elegans, UniProt Q18014, W245A); test: isothermal titration calorimetry
T3 construct: gene pfut-1; codon-optimized synthetic gene in pPICZalphaA with KEX2 cleavage signal, secreted from Pichia pastoris X-33; monomer
T3 sequence (Q18014 26-382 W245A): T1 sequence (Q18014 26-382 D309N) with W220A, N284D
Description: (§2) isothermal titration calorimetry on CePOFUT1

CePOFUT1 [4] = biological target: T4, CePOFUT1 (Caenorhabditis elegans, UniProt Q18014, D244A); test: isothermal titration calorimetry
T4 construct: gene pfut-1; codon-optimized synthetic gene in pPICZalphaA with KEX2 cleavage signal, secreted from Pichia pastoris X-33; monomer
T4 sequence (Q18014 26-382 D244A): T1 sequence (Q18014 26-382 D309N) with D219A, N284D
Description: as §2

CePOFUT1 [5] = biological target: T5, CePOFUT1 (Caenorhabditis elegans, UniProt Q18014, R40A); test: isothermal titration calorimetry
T5 construct: gene pfut-1; codon-optimized synthetic gene in pPICZalphaA with KEX2 cleavage signal, secreted from Pichia pastoris X-33; monomer
T5 sequence (Q18014 26-382 R40A): T1 sequence (Q18014 26-382 D309N) with R15A, N284D
Description: as §2

CePOFUT1 [6] = biological target: T6, CePOFUT1 (Caenorhabditis elegans, UniProt Q18014, F261A); test: isothermal titration calorimetry
T6 construct: gene pfut-1; codon-optimized synthetic gene in pPICZalphaA with KEX2 cleavage signal, secreted from Pichia pastoris X-33; monomer
T6 sequence (Q18014 26-382 F261A): T1 sequence (Q18014 26-382 D309N) with F236A, N284D
Description: as §2

CePOFUT1 [7] = biological target: T7, CePOFUT1 (Caenorhabditis elegans, UniProt Q18014, N43A); test: isothermal titration calorimetry
T7 construct: gene pfut-1; codon-optimized synthetic gene in pPICZalphaA with KEX2 cleavage signal, secreted from Pichia pastoris X-33; monomer
T7 sequence (Q18014 26-382 N43A): T1 sequence (Q18014 26-382 D309N) with N18A, N284D
Description: as §2

CePOFUT1 [8] = biological target: T8, CePOFUT1 (Caenorhabditis elegans, UniProt Q18014, F357A); test: isothermal titration calorimetry
T8 construct: gene pfut-1; codon-optimized synthetic gene in pPICZalphaA with KEX2 cleavage signal, secreted from Pichia pastoris X-33; monomer
T8 sequence (Q18014 26-382 F357A): T1 sequence (Q18014 26-382 D309N) with N284D, F332A
Description: as §2

CePOFUT1 [9] = biological target: T9, CePOFUT1 (Caenorhabditis elegans, UniProt Q18014, F199A); test: isothermal titration calorimetry
T9 construct: gene pfut-1; codon-optimized synthetic gene in pPICZalphaA with KEX2 cleavage signal, secreted from Pichia pastoris X-33; monomer
T9 sequence (Q18014 26-382 F199A): T1 sequence (Q18014 26-382 D309N) with F174A, N284D
Description: as §2

CePOFUT1 [10] = biological target: T10, CePOFUT1 (Caenorhabditis elegans, UniProt Q18014, D242A); test: isothermal titration calorimetry
T10 construct: gene pfut-1; codon-optimized synthetic gene in pPICZalphaA with KEX2 cleavage signal, secreted from Pichia pastoris X-33; monomer
T10 sequence (Q18014 26-382 D242A): T1 sequence (Q18014 26-382 D309N) with D217A, N284D
Description: as §2

CePOFUT1 [11] = biological target: T11, CePOFUT1 (Caenorhabditis elegans, UniProt Q18014, R240K); test: isothermal titration calorimetry
T11 construct: gene pfut-1; codon-optimized synthetic gene in pPICZalphaA with KEX2 cleavage signal, secreted from Pichia pastoris X-33; monomer
T11 sequence (Q18014 26-382 R240K): T1 sequence (Q18014 26-382 D309N) with R215K, N284D
Description: as §2

CePOFUT1 [12] = biological target: T2, CePOFUT1; test: isothermal titration calorimetry; conditions: read-out: K d (μM)GDP-fucose
Description: as §2

Row | ΔTm at 1000 µM (CePOFUT1 [1]) [°C] | ΔTm at 1000 µM (CePOFUT1 [2]; read-out: ΔT m (°C)1 mM GDP) [°C] | Kd (CePOFUT1 [3]) [µM] | Kd (CePOFUT1 [4]) [µM] | Kd (CePOFUT1 [5]) [µM] | Kd (CePOFUT1 [6]) [µM] | Kd (CePOFUT1 [7]) [µM] | Kd (CePOFUT1 [8]) [µM] | Kd (CePOFUT1 [9]) [µM] | Kd (CePOFUT1 [10]) [µM] | Kd (CePOFUT1 [11]) [µM] | ΔTm at 1000 µM (CePOFUT1 [2]; read-out: ΔT m (°C)1 mM GDP-fucose) [°C] | Kd (CePOFUT1 [12]) [µM] | Structure (SMILES)
1 | 5.01 | 4.21 | 1.6 ± 0.4 | 0.1 ± 0.01 | 3.1 ± 0.53 | 0.12 ± 0.07 | 0.3 ± 0.09 | 26.9 ± 5 | 0.18 ± 0.03 | 0.09 ± 0.02 | 61.2 ± 10.5 | – | – | Nc1nc2c(ncn2[C@@H]2O[C@H](COP(=O)(O)OP(=O)(O)O)[C@@H](O)[C@H]2O)c(=O)[nH]1 [GDP]
2 | – | – | – | – | – | – | – | – | – | – | – | 2.19 | 0.23 ± 0.04 | C[C@@H]1O[C@H](OP(=O)(O)OP(=O)(O)OC[C@H]2O[C@@H](n3cnc4c(=O)[nH]c(N)nc43)[C@H](O)[C@@H]2O)[C@@H](O)[C@H](O)[C@@H]1O [GDP-fucose]
